The test system of data set [1] is SLAMF 1. Kind of data set: Palmitic acid treatment of human hepatocytes in culture, SLAMF1 protein by western blot and immunofluorescence. The format is cell-based. To be noted: for SLAMF1 level normalized to Tubulin, relative to control: western blot, n=3; for SLAMF 1 protein levels by immunofluorescence staining: palmitic acid vs vehicle. As for the experimental part:
Hepatocytes were treated with two different doses of palmitic acid (0.4 and 0.8 mM). […] The 0.4 mM dose has a SLAMF1 level of 2.3 times the control level. The 0.8 mM dose has a SLAMF1 level of 5.8 times the control level. […] Representative immunofluorescence staining of hepatocytes treated with vehicle (left panel) or palmitic acid (right panel). Caveolin antibody (red, to label the membrane of the cells), SLAMF 1 antibody (green) and the nuclear marker DAPI (blue). Protein levels of SLAMF 1 are elevated in response to palmitic acid (right panel). The data represents n=4 samples per group. All samples were a courtesy of Pathology Department. All pictures were acquired on a Leica TCS SP5 Spectral Confocal Microscope equipped with a ×40 (oil) objective.

Data set [2] concerns HepG2 cells. Kind of data set: Palmitic acid lipotoxicity in HepG2 cells (MTT, lactate dehydrogenase, AnV cytometry, cleaved caspase 3 p17 western blot). It counts as cell-based, human. To be noted: PA 24 h. On the technique in general: A western blot detects proteins with antibodies after separation by electrophoresis.
Data set [3] has as its system SLAMF1. The experiment in a line: SLAMF1 expression in PA treated HepG2 cells (immunocytochemistry, Western blot, q-PCR, conditioned medium). The format is cell-based, human. To be noted: for SLAMF1 mRNA (q-PCR) / SLAMF1 protein (immunocytochemistry, Western blot): HepG2 cells, PA 24 h. From the text:
FIGS. 7A-7C show SLAMF1 increases in PA treated HepG2 cells.
Non-alcoholic fatty liver disease (NAFLD) is one of the most common forms of chronic liver disease. NAFLD's initial phase involves hepatic steatosis (triglyceride accumulation in hepatocytes). NAFLD can rapidly progress to non-alcoholic steatohepatitis (NASH). NASH is characterized by increased oxidative stress, lipid peroxidation, inflammation, mitochondria dysfunction, and hepatocyte death and fibrosis. If untreated, NASH leads to cirrhosis, and in some cases, hepatocellular carcinoma. […] Therefore, it is critical to understand the mechanisms responsible for NAFLD progression to NASH to develop efficient therapies and find disease progression biomarkers. Signaling lymphocytic activation molecule 1 (SLAMF1) protein is a self-ligand receptor involved in regulating the immune response to viruses and cancer. In the present disclosure, the inventors discovered that hepatocytes from NASH liver samples from humans and mice express high levels of SLAMF1. To confirm these findings, the inventors used palmitic acid-treated HepG2 hepatocytes as an “in vitro” model of NASH. […] Based on the inventors' experimental results, SLAMF1 may be used as both a therapeutic and a diagnostic target (including soluble form) for NAFLD and NASH.
Referring to FIGS. 6A-8E, the involvement of SLAMF1 in the progression of NASH was explored in human hepatocarcinoma cells HepG2.

SMILES strings stand for the structures. “Also recorded” adds a separate entry of the source.

Take `CCCCCCCCCCCCCCCC(=O)O` [palmitic acid]: in data set [1] (0.4 mM palmitic acid), the “SLAMF1 level normalized to Tubulin, relative to control” value is 2.3 times the control level. Further, in data set [1] (0.8 mM palmitic acid), the “SLAMF1 level normalized to Tubulin, relative to control” value was 5.8 times the control level. Also, the “SLAMF 1 protein levels” value in data set [1] (0.4 and 0.8 mM palmitic acid) is given as “dose dependent increase”. In data set [1] (n=4), the “SLAMF 1 protein levels by immunofluorescence staining” value is reported as “significant increase in SLAMF1 levels”. Further, in data set [1] (n=4, listed as Palmitic acid), the “SLAMF 1 protein levels by immunofluorescence staining” value is given as “elevated”. Moreover, in data set [2], the “apoptosis (AnV by cytometry, cleaved caspase 3 p17 by western blot)” value is recorded as “induced apoptosis”; the “cell viability (MTT)” value is “reduces cell viability”; the “cytotoxicity (Lactate dehydrogenase activity in conditioned medium)” value is given as “increases cytotoxicity”. Moreover, in data set [3], the “SLAMF1 mRNA (q-PCR)” value is reported as “significant increases” and the “SLAMF1 protein (immunocytochemistry, Western blot)” value was “significant increases”. In data set [3] (listed as PA), the “SLAMF1 mRNA (q-PCR)” value was “increases” and the “SLAMF1 protein (immunocytochemistry, Western blot)” value is recorded as “increases SLAMF1 protein”. Moreover, the “SLAMF1 in culture/conditioned medium” value in data set [3] (palmitic acid-treated hepatocytes) was “secrete SLAMF1 in the culture medium; also recorded: increases SLAMF1 both in cells and conditioned medium”.

These data come from patent publication US20240077498A1, “METHOD OF DIAGNOSING AND TREATING NONALCOHOLIC FATTY LIVER DISEASE AND NONALCOHOLIC STEATOHEPATITIS” (Board of Supervisors of Louisiana State University and …, priority 2020, published 2024).
